This is an account of results in patent US10821110B2, “Composite preparation, containing novel 3-(4--(benzyloxy)phenyl)hex-4-inoic acid derivative and another active ingredient, for preventing or treating metabolic diseases” (HYUNDAI PHARM CO., LTD., priority 2014, dated 2020).

pEC50: −log10 of the molar value.

T1 sequence (O14842 whole entry): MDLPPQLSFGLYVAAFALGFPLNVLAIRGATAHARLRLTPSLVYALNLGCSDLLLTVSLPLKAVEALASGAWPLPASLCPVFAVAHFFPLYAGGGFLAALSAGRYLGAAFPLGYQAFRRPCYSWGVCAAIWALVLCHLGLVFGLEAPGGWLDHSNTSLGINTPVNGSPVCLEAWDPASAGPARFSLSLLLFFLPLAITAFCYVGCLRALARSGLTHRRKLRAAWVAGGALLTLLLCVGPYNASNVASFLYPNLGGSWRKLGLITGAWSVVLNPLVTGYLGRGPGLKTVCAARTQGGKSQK

The first test concerns the target T1, human GPR40 (Homo sapiens, UniProt O14842).
T1 construct: host or cells: HEK-293
Briefly: Activation of GPR40 protein: intracellular calcium change (Fluo-4, Flexstation 3) in transfected HEK-293 cells. Format: cell-based. Particulars: HEK-293 cells transfected with human GPR40; intracellular calcium; read-out: EC50. As for the experimental part: The activation of GPR40 protein by a novel 3-(4-(benzyloxy)phenyl)hex-4-ynoic acid derivative of the present invention was evaluated through the change in intracellular calcium concentration due to the activity of GPR40 protein. First, HEK-293 cells were transfected with human GPR40 DNA (Origene, RC218370) by using Fugene HD (Promega, E2311). […] After 24 hours, the cell culture medium was removed, and replaced with Dulbecco's Modified Eagle Medium (DMEM, 50 μl) supplemented with 1% fetal bovine serum (FBS). For the measurement of calcium concentration, 50 μL of Fluo-4 reagent (Invitrogen, F10471) was added to each well and cultured in a 37° C. incubator for 2 hours. […] Two hours after the initiation of the culture, the prepared samples were automatically injected into the cells using Flexstation 3 (Molecular Devices), and then, the change in intracellular calcium concentration was measured using SoftMax®Pro software for 120 seconds. Here, for a non-treated group, dimethylsulfoxide (DMSO) was injected into the cells to measure the change in calcium concentration. The GPR40 protein activity was calculated from the measured calcium concentration result values using equation 1 below, and the GPR40 activity (EC50 value) by the samples was obtained. […] GPR 40 activity=(intracellular calcium concentration increased by the sample)/(intracellular calcium concentration of the non-treated group)×100 [Equation 1]
In general terms: A change in cytosolic calcium serves as a functional read-out for many receptors and channels.
Take `CC#CC(CC(=O)O)c1ccc(OCc2cccc(C3=CCC4(CC3)OCCO4)c2)cc1` (centres unmarked) [Example 1, 3-(4-(3-(1,4-dioxaspiro[4.5]dec-7-en-8-yl)benzyloxy)phenyl)hex-4-ynoic acid]: the pEC50 was < 6.52.

Take `CC#CC(CC(=O)O)c1ccc(OCc2cccc(C3=CCC4(CC3)OCCO4)c2)cc1` [Example 2, L-lysine 3-(4-(3-(1,4-dioxaspiro[4.5]dec-7-en-8-yl)benzyloxy)phenyl)hex-4-ynoate]: the pEC50 was < 6.52.

For the molecule `CC#CC(CC(=O)O)c1ccc(OCc2cccc(C3=CCC(=O)CC3)c2)cc1` (centres unmarked) [Example 4, 3-(4-(3-(4-oxocyclohex-1-enyl)benzyloxy)phenyl)hex-4-ynoic acid], the pEC50 is < 6.52.

Consider `CC#C[C@@H](CC(=O)O)c1ccc(OCc2cccc(C3=CCC4(CC3)OCCO4)c2)cc1` [Example 7, (3S)-3-(4-(3-(1,4-dioxaspiro[4.5]dec-7-en-8-yl)benzyloxy)phenyl)hex-4-ynoic Acid], for which the pEC50 is > 6.70.

Turning to `CC#C[C@H](CC(=O)O)c1ccc(OCc2cccc(C3=CCC4(CC3)OCCO4)c2)cc1` [Example 8, (3R)-3-(4-(3-(1,4-dioxaspiro[4.5]dec-7-en-8-yl)benzyloxy)phenyl)hex-4-ynoic acid], the pEC50 was < 6.52.

`CC#C[C@H](CC(=O)O)c1ccc(OCc2cccc(C3=CCC4(CC3)OCCO4)c2)cc1` [Example 10, L-lysine (3R)-3-(4-(3-(1,4-dioxaspiro[4.5]dec-7-en-8-yl)benzyloxy)phenyl)hex-4-ynoate]: the pEC50 is < 6.52.

As to `CC#CC(CC(=O)O)c1ccc(OCc2ccc(CN3CCc4ccccc4C3)c(C3=CCCCC3)c2)cc1` (centres unmarked) [Example 13, 3-(4-(3-cyclohexenyl-4-((3,4-dihydroisoquinolin-2(1H)-yl)methyl)benzyloxy)phenyl)hex-4-ynoic acid], the pEC50 is < 6.52.

Turning to `CC#CC(CC(=O)O)c1ccc(OCc2ccc(CN3CCN(c4ccccc4)CC3)cc2)cc1` (centres unmarked) [Example 15, 3-(4-(4-((4-phenylpiperazin-1-yl)methyl)benzyloxy)phenyl)hex-4-ynoic acid], the pEC50 was < 6.52.

Turning to `CC#CC(CC(=O)O)c1ccc(OCc2ccc(CN3CCC(c4ccccc4)CC3)cc2)cc1` (centres unmarked) [Example 17, 3-(4-(4-((4-phenylpiperidin-1-yl)methyl)benzyloxy)phenyl)hex-4-ynoic acid], the pEC50 is < 6.52.

Take `CC#CC(CC(=O)O)c1ccc(OCc2ccc(CN3CCN(c4ccc(F)cc4)CC3)cc2)cc1` (centres unmarked) [Example 18, 3-(4-(4-((4-(4-fluorophenyl)piperazin-1-yl)methyl)benzyloxy)phenyl)hex-4-ynoic acid]: the pEC50 is < 6.52.

In the case of `CC#CC(CC(=O)O)c1ccc(OCc2ccc(CN3CCN(c4ccc(C(F)(F)F)cc4)CC3)cc2)cc1` (centres unmarked) [Example 19, 3-(4-(4-((4-(4-(trifluoromethyl)phenyl)piperazin-1-yl)methyl)benzyloxy)phenyl)hex-4-ynoic acid], the pEC50 was < 6.52.

`CC#CC(CC(=O)O)c1ccc(OCc2ccc(CN3CCN(c4ccc(OCCCS(C)(=O)=O)cc4)CC3)cc2)cc1` (centres unmarked) [Example 20, 3-(4-(4-((4-(4-(3-(methylsulfonyl)propoxy)phenyl)piperazin-1-yl)methyl)benzyloxy)phenyl)hex-4-ynoic acid]: the pEC50 was < 6.52.

Take `CC#C[C@@H](CC(=O)O)c1ccc(OCc2ccc(CN3CCN(c4ccc(C(F)(F)F)cc4)CC3)cc2)cc1` [Example 22, (S)-3-(4-(4-((4-(4-(trifluoromethyl)phenyl)piperazin-1-yl)methyl)benzyloxy)phenyl)hex-4-ynoic acid]: the pEC50 is < 6.52.

Take `CC#C[C@@H](CC(=O)O)c1ccc(OCc2ccc(CN3CCC(c4ccccc4)CC3)cc2)cc1` [Example 26, (S)-3-(4-(4-((4-phenylpiperidin-1-yl)methyl)benzyloxy)phenyl)hex-4-ynoic acid]: the pEC50 is < 6.52.

As for `CC#C[C@@H](CC(=O)O)c1ccc(OCc2ccc(CN3Cc4ccccc4C3)cc2)cc1` [Example 27, (S)-3-(4-(4-(isoindolin-2-ylmethyl)benzyloxy)phenyl)hex-4-ynoic acid], the pEC50 was > 6.70.

`CC#C[C@@H](CC(=O)O)c1ccc(OCc2ccc(CN3CC=C(c4ccccc4)CC3)cc2)cc1` [Example 28, (S)-3-(4-(4-((4-phenyl-5,6-dihydropyridin-1(2H)-yl)methyl)benzyloxy)phenyl)hex-4-ynoic acid]: the pEC50 is > 6.70.

Turning to `CC#C[C@@H](CC(=O)O)c1ccc(OCc2ccc(CN3CC=C(c4ccc(S(C)(=O)=O)cc4)CC3)cc2)cc1` [Example 32, (S)-3-(4-(4-((4-(4-(methylsulfonyl)phenyl)-5,6-dihydropyridin-1(2H)-yl)methyl)benzyloxy)phenyl)hex-4-ynoic acid], the pEC50 was < 6.52.

As to `CC#C[C@@H](CC(=O)O)c1ccc(OCc2ccc(CN3CC=C(c4ccc(OCCCS(C)(=O)=O)cc4)CC3)cc2)cc1` [Example 33, (S)-3-(4-(4-((4-(4-(3-(methylsulfonyl)propoxy)phenyl)-5,6-dihydropyridin-1(2H)-yl)methyl)benzyloxy)phenyl)hex-4-ynoic acid], the pEC50 is < 6.52.

`CC#C[C@@H](CC(=O)O)c1ccc(OCc2ccc(C(C)N3CCc4ccccc4C3)cc2)cc1` (stereo partly drawn) [Example 34, (3S)-3-(4-(4-(1-(3,4-dihydroisoquinolin-2(1H)-yl)ethyl)benzyloxy)phenyl)hex-4-ynoic acid]: the pEC50 is < 6.52.

As to `CC#C[C@@H](CC(=O)O)c1ccc(OCc2ccc(CN3CCN(c4ccc(O)cc4)CC3)cc2)cc1` [Example 35, (S)-3-(4-(4-((4-(4-hydroxyphenyl)piperazin-1-yl)methyl)benzyloxy)phenyl)hex-4-ynoic acid], the pEC50 is < 6.52.

`CC#C[C@@H](CC(=O)O)c1ccc(OCc2ccc(CN3CCN(c4ccc(C#N)cn4)CC3)cc2)cc1` [Example 45, (S)-3-(4-(4-((4-(5-cyanopyridin-2-yl)piperazin-1-yl)methyl)benzyloxy)phenyl)hex-4-ynoic acid]: the pEC50 was < 6.52.

With `CC#C[C@@H](CC(=O)O)c1ccc(OCc2ccc(CN3CCC(c4ccccc4)C3)cc2)cc1` (stereo partly drawn) [Example 46, (3S)-3-(4-(4-((3-phenylpyrrolidin-1-yl)methyl)benzyloxy)phenyl)hex-4-ynoic acid], the pEC50 is < 6.52.

In the case of `CC#C[C@@H](CC(=O)O)c1ccc(OCc2ccc(CCN3CCc4cc(OC)ccc4C3)cc2)cc1` [Example 48, (S)-3-(4-(4-(2-(6-methoxy-3,4-dihydroisoquinolin-2(1H)-yl)ethyl)benzyloxy)phenyl)hex-4-ynoic acid], the pEC50 was < 6.52.

Regarding `CC#C[C@@H](CC(=O)O)c1ccc(OCc2ccc(CCN3Cc4ccccc4C3)cc2)cc1` [Example 49, (S)-3-(4-(4-(2-(isoindolin-2-yl)ethyl)benzyloxy)phenyl)hex-4-ynoic acid], the pEC50 was < 6.52.

For the molecule `CC#C[C@@H](CC(=O)O)c1ccc(OCc2ccc(CCN3CCc4ccccc4C3)cc2)cc1` [Example 50, (S)-3-(4-(4-(2-(3,4-dihydroisoquinolin-2(1H)-yl)ethyl)benzyloxy)phenyl)hex-4-ynoic acid], the pEC50 was < 6.52.

Consider “potassium (S)-3-(4-(4-((4-(4-(trifluoromethyl)phenyl)piperazin-1-yl)methyl)benzyloxy)phenyl)hex-4-ynoate [Example 24]”, for which the pEC50 is 6.52 to 6.70.

Staying with this test, now noted: HEK-293 cells transfected with human GPR40; values in text; read-out: concentration activating the GPR40 protein by 50% (EC50).
Consider `CC#C[C@@H](CC(=O)O)c1ccc(OCc2cccc(C3=CCC4(CC3)OCCO4)c2)cc1` [Example 7, (3S)-3-(4-(3-(1,4-dioxaspiro[4.5]dec-7-en-8-yl)benzyloxy)phenyl)hex-4-ynoic Acid], for which the pEC50 was ≥ 6.70.

As to `CC#C[C@@H](CC(=O)O)c1ccc(OCc2ccc(CN3Cc4ccccc4C3)cc2)cc1` [Example 27, (S)-3-(4-(4-(isoindolin-2-ylmethyl)benzyloxy)phenyl)hex-4-ynoic acid], the pEC50 was ≥ 6.70.

For `CC#C[C@@H](CC(=O)O)c1ccc(OCc2ccc(CN3CC=C(c4ccccc4)CC3)cc2)cc1` [Example 28, (S)-3-(4-(4-((4-phenyl-5,6-dihydropyridin-1(2H)-yl)methyl)benzyloxy)phenyl)hex-4-ynoic acid], the pEC50 was ≥ 6.70.

A further test has as its system Male Sprague Dawley rats. Briefly: Oral glucose tolerance test (OGTT) 1. The class given is in vivo. Particulars: Rattus norvegicus, 2 h; SD rats; 10 mg/kg oral; glucose 4 g/kg 30 minutes after; read-out: % AUC (reduction (%) of blood glucose AUC). As for the experimental part:
Male Sprague Dawley rats aged 8-10 weeks old were acclimated for at least 7 days, and then only healthy animals were used for the oral glucose tolerance test (OGTT test). After fasting for 16-18 hours, five rats per group were randomly grouped and orally administered with the compounds prepared in Examples 2, 3, 4, 6, 9, 12, 14, 16, 25, 29, 36, 37, 41, 43, and 44 at a dose of 10 mg/kg each. Here, as for a non-treated group (vehicle), a solution (PEG 400/Tween 80/0.25% CMC, 5%/5%/90%, v/v/v) containing 5% polyethyleneglycol/5% tween 80/0.25% carboxymethylcelluluse (CMC) was orally administered at the same dose. Glucose (4 g/kg) was orally administered at a dose of 5 ml/kg 30 minutes after each sample was administered. Then, the blood glucose was measured by using Accu-chek active strip (Roche diagnostic Co.).
`CC#CC(CC(=O)O)c1ccc(OCc2cccc(C3=CCC4(CC3)OCCO4)c2)cc1` [Example 2, L-lysine 3-(4-(3-(1,4-dioxaspiro[4.5]dec-7-en-8-yl)benzyloxy)phenyl)hex-4-ynoate]: the inhibition in vivo at 10 mg/kg worked out at 17.2%.

As for `CC#CC(CC(=O)O)c1ccc(OCc2ccc(C3=CCC4(CC3)OCCO4)cc2)cc1` (centres unmarked) [Example 3], the inhibition in vivo at 10 mg/kg turned out to be 12.5%.

Turning to `CC#CC(CC(=O)O)c1ccc(OCc2cccc(C3=CCC(=O)CC3)c2)cc1` (centres unmarked) [Example 4, 3-(4-(3-(4-oxocyclohex-1-enyl)benzyloxy)phenyl)hex-4-ynoic acid], the inhibition in vivo at 10 mg/kg amounted to 16.2%.

In the case of `CC#CC(CC(=O)O)c1ccc(OCc2cccc(C3=CCC(O)CC3)c2)cc1` [Example 6, L-lysine 3-(4-(3-(4-hydroxycyclohex-1-enyl)benzyloxy)phenyl)hex-4-ynoate], the inhibition in vivo at 10 mg/kg turned out to be 15.2%.

Consider `CC#C[C@@H](CC(=O)O)c1ccc(OCc2ccc(CN3CCN(c4ccc(OCOC)cc4)CC3)cc2)cc1` [Example 29, (S)-3-(4-(4-((4-(4-(methoxymethoxy)phenyl)piperazin-1-yl)methyl)benzyloxy)phenyl)hex-4-ynoic acid], for which the inhibition in vivo at 10 mg/kg amounted to 27.1%.

`CC#C[C@@H](CC(=O)O)c1ccc(OCc2ccc(CN3Cc4ccccc4C3)cc2)cc1` [Example 37, sodium (S)-3-(4-(4-(isoindolin-2-ylmethyl)benzyloxy)phenyl)hex-4-ynoate]: the inhibition in vivo at 10 mg/kg was found to be 28.5%.
